This is an account of results in patent publication US8383637B2, “2-amino-quinazoline derivatives useful as inhibitors of β-secretase (BACE)” (Jansssen Pharmaceutica N.V., priority 2004, dated 2013).

SMILES strings stand for the structures.

In the assay the target is T1, β-secretase(BACE) (Homo sapiens, UniProt P56817).
T1 construct: purchased Panvera
As to the kind of experiment: BACE FS1% Inhibition Assay. The assay is classed as biochemical. As to conditions: FS1 substrate; for inhibition at 0.3 µM / % Inhibition (FS) 0.3 μM: 0.3 μM test compound; for inhibition at 0.3 µM: read-out: % Inhibition (FS) 0.3 μM; for inhibition at 1 µM / % Inhibition (FS) 1 μM: 1 μM test compound; for inhibition at 1 µM: read-out: % Inhibition (FS) 1 μM; for inhibition at 3 µM / % Inhibition (FS) 3 μM: 3 μM test compound; for inhibition at 3 µM: read-out: % Inhibition (FS) 3 μM. The procedure, abridged: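 Human BACE (4 μg/mL working solution) preincubated 20 min at room temperature with compound, then FS1 substrate (300 μg/mL working solution) added and incubated 1 h at room temperature. Percent inhibition calculated at each compound concentration against blank and vehicle controls.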

T1 sequence (P56817 46-501): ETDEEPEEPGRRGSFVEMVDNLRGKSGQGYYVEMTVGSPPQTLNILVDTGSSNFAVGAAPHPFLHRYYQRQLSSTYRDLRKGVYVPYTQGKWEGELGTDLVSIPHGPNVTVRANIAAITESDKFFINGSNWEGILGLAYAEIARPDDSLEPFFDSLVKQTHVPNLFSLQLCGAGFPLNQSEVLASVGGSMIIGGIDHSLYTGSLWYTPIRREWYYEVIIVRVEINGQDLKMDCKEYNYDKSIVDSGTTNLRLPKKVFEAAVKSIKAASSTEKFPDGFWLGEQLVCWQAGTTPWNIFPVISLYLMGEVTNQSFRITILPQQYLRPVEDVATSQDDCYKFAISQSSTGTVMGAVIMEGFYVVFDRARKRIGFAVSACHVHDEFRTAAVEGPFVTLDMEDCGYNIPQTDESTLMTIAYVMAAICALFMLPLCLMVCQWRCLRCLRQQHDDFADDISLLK

Broadly, the inhibition is the change of the read-out against control, counted positive when it falls. As to `CC(C)(C)OC(=O)N1CCC(N2Cc3cc(Oc4ccccc4)ccc3N=C2N)CC1` [Compound 499, 4-(2-Amino-6-phenoxy-4H-quinazolin-3-yl)-piperidine-1-carboxylic acid tert-butyl ester], the inhibition at 0.3 µM was less than 30%, the inhibition at 1 µM was less than 30% and the inhibition at 3 µM was less than 30%.
As to `CN(C(=O)c1ccc(CN2Cc3cc(Oc4ccccc4)ccc3N=C2N)s1)C1CCCCC1` [Compound 503], the “% Inhibition (FS) 0.3 μM” value is reported as less than 30%, the “% Inhibition (FS) 1 μM” value was less than 30% and the “% Inhibition (FS) 3 μM” value came to 90%.
Regarding `CC1CCCCN1C(=O)CCCC(CCC(=O)N1CCCCC1C)N1Cc2cc(Oc3ccccc3)ccc2N=C1N` (stereo not drawn) [Compound 504], the “% Inhibition (FS) 0.3 μM” value is reported as less than 30%, the “% Inhibition (FS) 1 μM” value is reported as 31% and the “% Inhibition (FS) 3 μM” value stood at 96%.
For `COc1ccccc1-c1ccc2c(c1)CN([C@@H](CCC(=O)N(C)C1CCCCC1)C1CCCCC1)C(N)=N2` [Compound 506], the “% Inhibition (FS) 0.3 μM” value is recorded as 106%, the “% Inhibition (FS) 1 μM” value is reported as 115% and the “% Inhibition (FS) 3 μM” value is given as 128%.
For the compound `CC(C)(C)OC(=O)N1CCC(CN2Cc3cc(Oc4ccccc4)ccc3N=C2N)CC1` [Compound 509], the “% Inhibition (FS) 0.3 μM” value is listed as less than 30%, the “% Inhibition (FS) 1 μM” value was less than 30% and the “% Inhibition (FS) 3 μM” value was determined as 41%.
For `CC(C)(C)OC(=O)N1CCCCC(N2Cc3cc(Oc4ccccc4)ccc3N=C2N)C1` (stereo not drawn) [Compound 510], the “% Inhibition (FS) 0.3 μM” value is less than 30%, the “% Inhibition (FS) 1 μM” value is reported as less than 30% and the “% Inhibition (FS) 3 μM” value came out at 37%.
For `CN(C(=O)c1cccc(CN2Cc3cc(Oc4ccccc4C4CCCC4)ccc3N=C2N)c1)C1CCCCC1` [Compound 512], the “% Inhibition (FS) 0.3 μM” value is given as less than 30%, the “% Inhibition (FS) 1 μM” value is less than 30% and the “% Inhibition (FS) 3 μM” value is given as 51%.
With `CN(C(=O)c1cccc(CN2Cc3cc(OCc4ccccc4-c4ccccc4)ccc3N=C2N)c1)C1CCCCC1` [Compound 513], the “% Inhibition (FS) 0.3 μM” value was less than 30%, the “% Inhibition (FS) 1 μM” value is less than 30% and the “% Inhibition (FS) 3 μM” value is reported as less than 30%.
On to `COc1cccc(COc2ccc3c(c2)CN(Cc2cccc(C(=O)N(C)C4CCCCC4)c2)C(N)=N3)c1` [Compound 514], for which the “% Inhibition (FS) 0.3 μM” value was less than 30%, the “% Inhibition (FS) 1 μM” value is given as less than 30% and the “% Inhibition (FS) 3 μM” value is given as less than 30%.
For the compound `CCCCCOc1ccc2c(c1)CN(Cc1cccc(C(=O)N(C)C3CCCCC3)c1)C(N)=N2` [Compound 516], the “% Inhibition (FS) 0.3 μM” value is given as less than 30%, the “% Inhibition (FS) 1 μM” value was less than 30% and the “% Inhibition (FS) 3 μM” value is reported as less than 30%.
With `CC(C)CCOc1ccc2c(c1)CN(Cc1cccc(C(=O)N(C)C3CCCCC3)c1)C(N)=N2` [Compound 517, 3-[2-Amino-6-(3-methyl-butoxy)-4H-quinazolin-3-ylmethyl]-N-cyclohexyl-N-methyl-benzamide], the inhibition at 0.3 µM is less than 30%, the inhibition at 1 µM was less than 30% and the inhibition at 3 µM came out at 40%.
On to `CC(C)COc1ccc2c(c1)CN(Cc1cccc(C(=O)N(C)C3CCCCC3)c1)C(N)=N2` [Compound 518], for which the “% Inhibition (FS) 0.3 μM” value is less than 30%, the “% Inhibition (FS) 1 μM” value is recorded as less than 30% and the “% Inhibition (FS) 3 μM” value is given as less than 30%.
As for `CC(C)Oc1ccc2c(c1)CN(Cc1cccc(C(=O)N(C)C3CCCCC3)c1)C(N)=N2` [Compound 519], the “% Inhibition (FS) 0.3 μM” value was less than 30%, the “% Inhibition (FS) 1 μM” value is on record as less than 30% and the “% Inhibition (FS) 3 μM” value is on record as less than 30%.
As to `CN(C(=O)c1cccc(CN2Cc3cc(OC4CCCC4)ccc3N=C2N)c1)C1CCCCC1` [Compound 520], the “% Inhibition (FS) 0.3 μM” value is reported as less than 30%, the “% Inhibition (FS) 1 μM” value is less than 30% and the “% Inhibition (FS) 3 μM” value is 33%.
Regarding `CN(C(=O)c1cccc(CN2Cc3cc(OCC4CCCC4)ccc3N=C2N)c1)C1CCCCC1` [Compound 521], the “% Inhibition (FS) 0.3 μM” value was less than 30%, the “% Inhibition (FS) 1 μM” value was less than 30% and the “% Inhibition (FS) 3 μM” value is reported as less than 30%.
